Test results from patent US9422243B2 (priority 2011, dated 2016).
Read-outs that look alike come from different tables or passages of the source.

Tests used:
[1] = mouse, 10 mg/kg, oral vs IV dose-normalized plasma AUC
[2] = in vivo; conditions: male, Balb, Nu/Nu, mouse, plasma, 10 mg/kg; for Vd / clearance: iv; for AUC / Cmax / half-life: po
[3] = system: Capan-1 human pancreatic cancer tumors; conditions: for T − C: time to reach 1 g
[4] = system: BRCA mutations and breast, ovarian and prostate cancer; conditions: 19 patients with BRCA mutations and breast, monotherapy; cited from earlier work
[5] = cpd. 1 100 mg/kg oral daily, days 1 to 14
[6] = temozolomide 50 mg/kg oral, days 3, 4, 5, 6, 7 and 8

| Structure (SMILES) | F on AUC [1] | Vd [2] | clearance [2] | AUC [2] | Cmax [2] | half-life [2] | BWL (%) [3, 5] | TGI (%) [3, 5] | Toxicity [3, 5] | T − C [3, 5] | BWL (%) [3, 6] | TGI (%) [3, 6] | Toxicity [3, 6] | T − C [3, 6] | objective response rate [4] |
| --- | --- | --- | --- | --- | --- | --- | --- | --- | --- | --- | --- | --- | --- | --- | --- |
| Cl.NCCOc1c(-c2ccc(Br)cc2)[nH]c(=O)c2c(F)c(F)ccc12 [Compound 12, 4-(2-Amino-ethoxy)-3-(4-bromo-phenyl)-7,8-difluoro-2H-isoquinolin-1-one hydrochloride] | 109% | 4.5 L/kg | 46.3 mL/min/kg | 8.15 µM·h | 3150 nM | 1.77 h |  |  |  |  |  |  |  |  |  |
| Cl.NCCOc1c(-c2ccc(Br)cc2)[nH]c(=O)c2cc(F)ccc12 [Compound 1, 4-(2-Amino-ethoxy)-3-(4-bromo-phenyl)-7-fluoro-2H-isoquinolin-1-one hydrochloride] | 107% | 3.6 L/kg | 12 mL/min/kg | 27 µM·h | 6000 nM | 3.9 h | 3% | 21% | 0/7 | 4 days |  |  |  |  |  |
| Cn1nnc2c(C(N)=O)ncn2c1=O [temozolomide, reference compound] |  |  |  |  |  |  |  |  |  |  | 2.5% | 13% | 0/7 | 1 days |  |
| Cl.NCCOc1c(-c2ccc(N3CCOCC3)c(Br)c2)[nH]c(=O)c2cc(F)ccc12 [Compound 4, 4-(2-Amino-ethoxy)-3-(3-bromo-4-morpholin-4-yl-phenyl)-7-fluoro-2H-isoquinolin-1-one hydrochloride] | 83% | 7.8 L/kg | 44.5 mL/min/kg | 5.6 µM·h | 3000 nM | 1.43 h |  |  |  |  |  |  |  |  |  |
| O=C(c1cc(Cc2n[nH]c(=O)c3ccccc23)ccc1F)N1CCN(C(=O)C2CC2)CC1 [Olaparib] |  |  |  |  |  |  |  |  |  |  |  |  |  |  | 47% |

Continued, in another order:

| F on AUC [1] | Vd [2] | clearance [2] | AUC [2] | Cmax [2] | half-life [2] | Structure (SMILES) | BWL (%) [3, 5] | TGI (%) [3, 5] | Toxicity [3, 5] | T − C [3, 5] | BWL (%) [3, 6] | TGI (%) [3, 6] | Toxicity [3, 6] | T − C [3, 6] | objective response rate [4] |
| --- | --- | --- | --- | --- | --- | --- | --- | --- | --- | --- | --- | --- | --- | --- | --- |
| 74% | 5.2 L/kg | 28.2 mL/min/kg | 7.5 µM·h | 2850 nM | 3 h | Cl.NCCOc1c(-c2ccc(Cl)cc2)[nH]c(=O)c2cc(F)ccc12 [Compound 8, 4-(2-Amino-ethoxy)-3-(4-chloro-phenyl)-7-fluoro-2H-isoquinolin-1-one hydrochloride] |  |  |  |  |  |  |  |  |  |
| 136% | 4.2 L/kg | 20.5 mL/min/kg | 20.3 µM·h | 2800 nM | 3.5 h | NCCOc1c(-c2ccc(Cl)c(Cl)c2)[nH]c(=O)c2cc(F)ccc12 [Compound 14, 4-(2-Amino-ethoxy)-3-(3,4-dichloro-phenyl)-7-fluoro-2H-isoquinolin-1-one] |  |  |  |  |  |  |  |  |  |
| 133% | 6.5 L/kg | 45.4 mL/min/kg | 10.5 µM·h | 4600 nM | 3.9 h | COc1ccc(-c2[nH]c(=O)c3cc(F)ccc3c2OCCN)cc1F.Cl [Compound 21, 4-(2-Amino-ethoxy)-7-fluoro-3-(3-fluoro-4-methoxy-phenyl)-2H-isoquinolin-1-one hydrochloride] |  |  |  |  |  |  |  |  |  |
| 128% | 5.7 L/kg | 45 mL/min/kg | 10 µM·h | 2000 nM | 3 h | Cc1cc(-c2[nH]c(=O)c3cc(F)ccc3c2OCCN)ccc1Cl.Cl [Compound 13, 4-(2-Amino-ethoxy)-3-(4-chloro-3-methyl-phenyl)-7-fluoro-2H-isoquinolin-1-one hydrochloride] |  |  |  |  |  |  |  |  |  |
